{"source": "patent US12605480B2", "about": "“Tough gel-based drug delivery compositions and methods thereof” (priority 2019, dated 2026)", "key": {"[1]": {"settings": "rat, in vivo; cited from earlier work"}, "[2]": {"test": "Solubility of CORT in water and other solutions", "assay_type": "physicochemical", "procedure": "The solubility of CORT in various water and other solutions were evaluated over a period of 24 h."}, "[3]": {"settings": "cited from earlier work"}}}
{"smiles": "CC1(C)O[C@@H]2C[C@H]3[C@@H]4CCC5=CC(=O)C=C[C@]5(C)[C@@]4(F)[C@@H](O)C[C@]3(C)[C@]2(C(=O)CO)O1", "note": "[Triamcinolone acetonide]", "values": [{"measurement": "acute toxicity (oral LD50)", "setting": "[1]", "value": 1451, "unit": "mg/kg"}, {"measurement": "solubility at 24 h", "setting": "[2]; DMSO:ddH2O 1:4, aqueous with cosolvent or surfactant or cyclodextrin, DMSO:ddH2O ratio of 1:4", "value": "~1000", "unit": "µg/mL"}, {"measurement": "solubility at 24 h", "setting": "[2]; ddH2O and water-based solutions of 2% alginate and 12% acrylamide, 24 h", "value": "10 to 100", "unit": "µg/mL"}, {"measurement": "solubility", "setting": "[2]; water 37° C., input of the FE model, read-out: maximum solubility sol(water 37° C.) / Csol", "value": 33, "unit": "µg/mL"}, {"measurement": "water solubility", "setting": "[3]", "value": 20, "unit": "µg/mL"}]}
